Laboratory results taken from US9499554B2, “Anti-influenza compositions and methods” (priority 2013, dated 2016).
In brackets after ≈: the same amount, converted by molar mass.

System: A/NJ/15/2007 (H1N1-H274Y)
Type: cell-based, Influenza A

## Nc1ncnc2c([C@@H]3N[C@H](CO)[C@@H](O)[C@H]3O)c[nH]c12 [compound 1, (2S,3S,4R,5R)-2-(4-Amino-5H-pyrrolo[3,2-d]pyrimidin-7-yl)-5-(hydroxymethyl)pyrrolidine-3,4-diol]
  EC50, antiviral activity in MDCK cells: 1.39 µg/mL (≈ 5.24 µM)
